Structures are written as SMILES.

What is called IC50 is the concentration that gives 50% inhibition.

This experiment addresses T1, P2X4 (Homo sapiens, UniProt Q99571).
T1 sequence (Q99571 1-388): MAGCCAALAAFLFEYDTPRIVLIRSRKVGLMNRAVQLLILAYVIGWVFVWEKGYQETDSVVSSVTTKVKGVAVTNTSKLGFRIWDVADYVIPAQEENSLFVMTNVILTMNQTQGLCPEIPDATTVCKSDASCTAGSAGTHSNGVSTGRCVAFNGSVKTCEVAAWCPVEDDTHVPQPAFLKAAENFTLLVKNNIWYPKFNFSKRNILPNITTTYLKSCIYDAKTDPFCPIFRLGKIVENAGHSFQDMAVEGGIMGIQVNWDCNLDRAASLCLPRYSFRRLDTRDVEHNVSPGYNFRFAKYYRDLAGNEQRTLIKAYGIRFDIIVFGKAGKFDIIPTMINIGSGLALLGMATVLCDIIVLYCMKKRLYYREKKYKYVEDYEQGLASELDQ
In words: Assay B: human P2X4 receptor cell line, mitochondrial photina luminescence (agonist Bz-ATP at EC50). Type of experiment: cell-based. On the set-up: host or cells: HEK 293 (recombinant, constitutively expressing; with mitochondrial photina in Assay B). The conditions noted are these: HEK human P2X4 cell line, photina luminescence, agonist Bz-ATP at EC50, average; for Emax: read-out: human P2X4 Assay B avg Efficacy. The method, then:
The identification of agonists and antagonists of the P2X4 receptor from humans and […] also the quantification of the activity of the compounds of the invention was performed by use of recombinant cell lines. […] The test cell lines constitutively express the mouse or human P2X4 receptors. Stimulation of the receptors with an agonist leads to a conformational change of P2X4 and influx of extracellular calcium ions through the ion channel. The cytoplasmatic calcium transient is detected via the calcium sensitive dye Fluo8 for the mouse P2×4 cell line or in case of the human P2×4 cell line a stably expressed calcium-sensitive photoprotein, mitochondrial photina, which, after reconstitution with the cofactor coelenterazine, emits light in dependence of calcium binding [Bovolenta S, Foti M, Lohmer S, Corazza S., J Biomol Screen. […] The strength of Fluo8 fluorescence signal or photina luminescence signal corresponds to the level of receptor activation. An inhibitor would decrease the signal depending on its potency and concentration.
The resulting light signal is measured immediately in the luminometer.

Turning to `CS(=O)(=O)c1ccc(COc2ccc(NC(=O)Cc3ccccc3Cl)cc2S(N)(=O)=O)cc1` [Example 147, 2-(2-Chlorophenyl)-N-(4-{[4-(methylsulfonyl)benzyl]oxy}-3-sulfamoylphenyl)acetamide], the IC50 came to 1270 nM and the Emax amounted to 69%.

Consider `NS(=O)(=O)c1cc(NC(=O)Cc2ccccc2Cl)ccc1OCc1ccncn1` [Example 153, 2-(2-Chlorophenyl)-N-[4-(pyrimidin-4-ylmethoxy)-3-sulfamoylphenyl]acetamide], for which the IC50 was 327 nM and the Emax was determined as 93%.

As for `NS(=O)(=O)c1cc(NC(=O)Cc2ccccc2Cl)ccc1OCc1ncccn1` [Example 154, 2-(2-Chlorophenyl)-N-[4-(pyrimidin-2-ylmethoxy)-3-sulfamoylphenyl]acetamide], the IC50 amounted to 252 nM and the Emax stood at 77%.

On to `NS(=O)(=O)c1cc(NC(=O)Cc2ccccc2Cl)ccc1OCC1COC1` [Example 159, 2-(2-Chlorophenyl)-N-[4-(oxetan-3-ylmethoxy)-3-sulfamoylphenyl]acetamide], for which the IC50 was found to be 1180 nM and the Emax was 91%.

For the compound `NS(=O)(=O)c1cc(NC(=O)Cc2ccccc2Cl)ccc1OCC1CCCO1` (stereo not drawn) [Example 161, 2-(2-Chlorophenyl)-N-[3-sulfamoyl-4-(tetrahydrofuran-2-ylmethoxy)phenyl]acetamide], the IC50 came out at 832 nM and the Emax worked out at 74%.

`NS(=O)(=O)c1cc(NC(=O)Cc2ccccc2Cl)ccc1OCC1CCOC1` (stereo not drawn) [Example 162, 2-(2-Chlorophenyl)-N-[3-sulfamoyl-4-(tetrahydrofuran-3-ylmethoxy)phenyl]acetamide]: the IC50 came out at 335 nM and the Emax was determined as 66%.

For `NS(=O)(=O)c1cc(NC(=O)Cc2ccccc2)cc(F)c1Oc1cccc(Cl)c1` [Example 170, N-[4-(3-Chlorophenoxy)-3-fluoro-5-sulfamoylphenyl]-2-phenylacetamide], the IC50 is above 16000 nM and the Emax is 36%.

Consider `Cc1ccccc1CC(=O)Nc1cc(F)c(Oc2cccc(Cl)c2)c(S(N)(=O)=O)c1` [Example 171, N-[4-(3-Chlorophenoxy)-3-fluoro-5-sulfamoylphenyl]-2-(2-methylphenyl)acetamide], for which the IC50 was 4910 nM and the Emax amounted to 65%.

As for `Cc1cccc(CC(=O)Nc2cc(F)c(Oc3cccc(Cl)c3)c(S(N)(=O)=O)c2)c1` [Example 172, N-[4-(3-Chlorophenoxy)-3-fluoro-5-sulfamoylphenyl]-2-(3-methylphenyl)acetamide], the half-inhibitory concentration (IC50) came to 3240 nM and the Emax stood at 63%.

As to `NS(=O)(=O)c1cc(NC(=O)Cc2cccnc2)ccc1Oc1cccc(Cl)c1` [Example 181, N-[4-(3-Chlorophenoxy)-3-sulfamoylphenyl]-2-(pyridin-3-yl)acetamide], the IC50 was found to be 2240 nM and the Emax is 63%.

Turning to `CC(C(=O)Nc1ccc(Oc2cccc(Cl)c2)c(S(N)(=O)=O)c1)c1ccccc1` (stereo not drawn) [Example 184, N-[4-(3-Chlorophenoxy)-3-sulfamoylphenyl]-2-phenylpropanamide], the Emax came out at 53%.

Regarding `NS(=O)(=O)c1cc(NC(=O)Cc2cccc(Cl)c2)ccc1Oc1cccc(Cl)c1` [Example 186, N-[4-(3-Chlorophenoxy)-3-sulfamoylphenyl]-2-(3-chlorophenyl)acetamide], the IC50 came out at 462 nM and the Emax was 97%.

For the compound `NS(=O)(=O)c1cc(NC(=O)Cc2ccncc2)ccc1Oc1cccc(Cl)c1` [Example 188, N-[4-(3-Chlorophenoxy)-3-sulfamoylphenyl]-2-(pyridin-4-yl)acetamide], the half-maximal inhibitory concentration (IC50) stood at 2560 nM and the Emax amounted to 71%.

`Cc1cccc(CC(=O)Nc2ccc(Oc3cccc(Cl)c3)c(S(N)(=O)=O)c2)n1` [Example 189, N-[4-(3-Chlorophenoxy)-3-sulfamoylphenyl]-2-(6-methylpyridin-2-yl)acetamide]: the IC50 was 429 nM and the Emax is 54%.

For the compound `COc1ccc(CC(=O)Nc2ccc(Oc3cccc(Cl)c3)c(S(N)(=O)=O)c2)cc1` [Example 190, N-[4-(3-Chlorophenoxy)-3-sulfamoylphenyl]-2-(4-methoxyphenyl)acetamide], the IC50 is 171 nM and the Emax came to 65%.

With `Cc1ccc(CC(=O)Nc2ccc(Oc3cccc(Cl)c3)c(S(N)(=O)=O)c2)nc1` [Example 193, N-[4-(3-Chlorophenoxy)-3-sulfamoylphenyl]-2-(5-methylpyridin-2-yl)acetamide], the IC50 was determined as 1060 nM and the Emax came out at 79%.

For `C[C@H](C(=O)Nc1ccc(Oc2cccc(Cl)c2)c(S(N)(=O)=O)c1)c1ccccc1` [Example 194, (2S)—N-[4-(3-chlorophenoxy)-3-sulfamoylphenyl]-2-phenylpropanamide], the Emax was determined as 65%.

On to `C[C@@H](C(=O)Nc1ccc(Oc2cccc(Cl)c2)c(S(N)(=O)=O)c1)c1ccccc1` [Example 195, (2R)—N-[4-(3-Chlorophenoxy)-3-sulfamoylphenyl]-2-phenylpropanamide], for which the Emax was 64%.

In the case of `COCCN(C)C(=O)c1ccccc1CC(=O)Nc1ccc(Oc2cccc(Cl)c2)c(S(N)(=O)=O)c1` [Example 197, 2-(2-{[4-(3-Chlorophenoxy)-3-sulfamoylphenyl]amino}-2-oxoethyl)-N-(2-methoxyethyl)-N-methylbenzamide], the half-inhibitory concentration (IC50) came out at 4120 nM and the Emax came out at 68%.

Take `CN(C)C(=O)c1ccccc1CC(=O)Nc1ccc(Oc2cccc(Cl)c2)c(S(N)(=O)=O)c1` [Example 198, 2-(2-{[4-(3-Chlorophenoxy)-3-sulfamoylphenyl]amino}-2-oxoethyl)-N,N-dimethylbenzamide]: the IC50 worked out at 4740 nM and the Emax worked out at 60%.

On to `NS(=O)(=O)c1cc(NC(=O)Cc2ccccc2)ccc1OC1CCCCC1` [Example 199, N-[4-(Cyclohexyloxy)-3-sulfamoylphenyl]-2-phenylacetamide], for which the IC50 turned out to be 1960 nM and the Emax amounted to 70%.

For `COCCNC(=O)c1cccc(CC(=O)Nc2ccc(Oc3cccc(Cl)c3)c(S(N)(=O)=O)c2)c1` [Example 201, 3-(2-{[4-(3-Chlorophenoxy)-3-sulfamoylphenyl]amino}-2-oxoethyl)-N-(2-methoxyethyl)benzamide], the concentration for half-maximal inhibition (IC50) was 3300 nM and the Emax turned out to be 73%.

On to `CNC(=O)c1cccc(CC(=O)Nc2ccc(Oc3cccc(Cl)c3)c(S(N)(=O)=O)c2)c1` [Example 203, 3-(2-{[4-(3-Chlorophenoxy)-3-sulfamoylphenyl]amino}-2-oxoethyl)-N-methylbenzamide], for which the IC50 came to 1350 nM and the Emax was determined as 69%.

Regarding `NS(=O)(=O)c1cc(NC(=O)Cc2ccccc2)ccc1OC1CCC1` [Example 204, N-[4-(Cyclobutyloxy)-3-sulfamoylphenyl]-2-phenylacetamide], the IC50 came to 4040 nM and the Emax worked out at 60%.

As for `NS(=O)(=O)c1cc(NC(=O)Cc2ccccc2Cl)ccc1OC1CCC1` [Example 205, 2-(2-Chlorophenyl)-N-[4-(cyclobutyloxy)-3-sulfamoylphenyl]acetamide], the IC50 was found to be 396 nM and the Emax was 74%.

On to `NS(=O)(=O)c1cc(NC(=O)Cc2ccccc2)ccc1OC1CCOCC1` [Example 206, 2-Phenyl-N-[3-sulfamoyl-4-(tetrahydro-2H-pyran-4-yloxy)phenyl]acetamide], for which the IC50 turned out to be 10800 nM and the Emax was found to be 88%.

In the case of `NS(=O)(=O)c1cc(NC(=O)Cc2ccc(Cl)cn2)ccc1Oc1cccc(Cl)c1` [Example 209, N-[4-(3-Chlorophenoxy)-3-sulfamoylphenyl]-2-(5-chloropyridin-2-yl)acetamide], the IC50 was 742 nM and the Emax was determined as 64%.

Consider `COCCOc1cccc(CC(=O)Nc2ccc(Oc3cccc(Cl)c3)c(S(N)(=O)=O)c2)c1` [Example 210, N-[4-(3-Chlorophenoxy)-3-sulfamoylphenyl]-2-[3-(2-methoxyethoxy)phenyl]acetamide], for which the IC50 worked out at 491 nM and the Emax turned out to be 71%.

For the compound `COCCOc1ccccc1CC(=O)Nc1ccc(Oc2cccc(Cl)c2)c(S(N)(=O)=O)c1` [Example 211, N-[4-(3-Chlorophenoxy)-3-sulfamoylphenyl]-2-[2-(2-methoxyethoxy)phenyl]acetamide], the IC50 was 404 nM and the Emax turned out to be 102%.

Take `NS(=O)(=O)c1cc(NC(=O)Cc2cccc(OCCO)c2)ccc1Oc1cccc(Cl)c1` [Example 212, N-[4-(3-Chlorophenoxy)-3-sulfamoylphenyl]-2-[3-(2-hydroxyethoxy)phenyl]acetamide]: the half-maximal inhibitory concentration (IC50) was found to be 406 nM and the Emax is 85%.

The values above are taken from patent publication US20180338980A1, “AROMATIC SULFONAMIDE DERIVATIVES” (BAYER PHARMA AKTIENGESELLSCHAFT, priority 2015, published 2018).
